{
  "source": "the supplement of paper PMC11208160",
  "data": [
    {"experiment": "recombinant UMI read abundance after kanamycin selection (control-corrected) (log10(CPM+1)); higher = more efficient recombination; extreme values may be limits of the assay; sequences stand for … in AGTGCAGAGAAAATCGGCCAGTTTTCTCTGCCTGCAGTCCGCATGCCGTGGGACCCCTTGGGTTCTAACCTGTTGCCTAGATTTATGCAGCGGACTGCCTTTCTCCCAAAGTGATAAACCGG…AGGTTGGTTTCACT; site = the 11-nt donor", "outline": "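Sequencing read counts were converted to CPM, averaged over two replicates and scaled by control-derived factors. Results are given as log10(CPM+1). The reads covered the donor–target junction of recombinant UMIs from a pooled Escherichia coli screen of donor and donor-binding-loop pairs for the IS621 bridge recombinase.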", "values": [
      {"sequence": "GAATGACCATGGACCGGTTTTCCCGGTAATCCGTATTTGCA (site GAATGCCCTTG)", "recombinant UMI read abundance (log10)": 0},
      {"sequence": "GAATGACCATGGACCGGTTTTCCCGGTAATCCGTATTTGCA (site GAATGGCCTTG)", "recombinant UMI read abundance (log10)": 1.02},
      {"sequence": "GAATGACCATGGACCGGTTTTCCCGGTAATCCGTATTTGCA (site GAATGTCCTTG)", "recombinant UMI read abundance (log10)": 0},
      {"sequence": "GAATGCTCATGGACCGGTTTTCCCGGTAATCCGTATTTGAA (site AAATGCTCTTT)", "recombinant UMI read abundance (log10)": 0.536},
      {"sequence": "GAATGCTCATGGACCGGTTTTCCCGGTAATCCGTATTTGAA (site CAATGCTCTTT)", "recombinant UMI read abundance (log10)": 1.08},
      {"sequence": "GAATGCTCATGGACCGGTTTTCCCGGTAATCCGTATTTGAA (site GAATGCTCTTT)", "recombinant UMI read abundance (log10)": 2.05},
      {"sequence": "GAATGCTCATGGACCGGTTTTCCCGGTAATCCGTATTTGAA (site TAATGCTCTTT)", "recombinant UMI read abundance (log10)": 0.684},
      {"sequence": "GAATGGCCATGGACCGGTTTTCCCGGTAATCCGTATTTGCA (site AAATGGCCTTG)", "recombinant UMI read abundance (log10)": 0},
      {"sequence": "GAATGGCCATGGACCGGTTTTCCCGGTAATCCGTATTTGCA (site CAATGGCCTTG)", "recombinant UMI read abundance (log10)": 0},
      {"sequence": "GAATGGCCATGGACCGGTTTTCCCGGTAATCCGTATTTGCA (site GAAAGGCCTTG)", "recombinant UMI read abundance (log10)": 0},
      {"sequence": "GAATGGCCATGGACCGGTTTTCCCGGTAATCCGTATTTGCA (site GAACGGCCTTG)", "recombinant UMI read abundance (log10)": 0},
      {"sequence": "GAATGGCCATGGACCGGTTTTCCCGGTAATCCGTATTTGCA (site GAAGGGCCTTG)", "recombinant UMI read abundance (log10)": 0},
      {"sequence": "GAATGGCCATGGACCGGTTTTCCCGGTAATCCGTATTTGCA (site GAATAGCCTTG)", "recombinant UMI read abundance (log10)": 0.926},
      {"sequence": "GAATGGCCATGGACCGGTTTTCCCGGTAATCCGTATTTGCA (site GAATCGCCTTG)", "recombinant UMI read abundance (log10)": 0.248},
      {"sequence": "GAATGGCCATGGACCGGTTTTCCCGGTAATCCGTATTTGCA (site GAATGACCTTG)", "recombinant UMI read abundance (log10)": 0},
      {"sequence": "GAATGGCCATGGACCGGTTTTCCCGGTAATCCGTATTTGCA (site GAATGCCCTTG)", "recombinant UMI read abundance (log10)": 0.0091},
      {"sequence": "GAATGGCCATGGACCGGTTTTCCCGGTAATCCGTATTTGCA (site GAATGGACTTG)", "recombinant UMI read abundance (log10)": 0.018},
      {"sequence": "GAATGGCCATGGACCGGTTTTCCCGGTAATCCGTATTTGCA (site GAATGGCCTAG)", "recombinant UMI read abundance (log10)": 0},
      {"sequence": "GAATGGCCATGGACCGGTTTTCCCGGTAATCCGTATTTGCA (site GAATGGCCTCG)", "recombinant UMI read abundance (log10)": 0.0219},
      {"sequence": "GAATGGCCATGGACCGGTTTTCCCGGTAATCCGTATTTGCA (site GAATGGCCTGG)", "recombinant UMI read abundance (log10)": 0},
      {"sequence": "GAATGGCCATGGACCGGTTTTCCCGGTAATCCGTATTTGCA (site GAATGGCCTTA)", "recombinant UMI read abundance (log10)": 0.0192},
      {"sequence": "GAATGGCCATGGACCGGTTTTCCCGGTAATCCGTATTTGCA (site GAATGGCCTTC)", "recombinant UMI read abundance (log10)": 0.0145},
      {"sequence": "GAATGGCCATGGACCGGTTTTCCCGGTAATCCGTATTTGCA (site GAATGGCCTTG)", "recombinant UMI read abundance (log10)": 0},
      {"sequence": "GAATGGCCATGGACCGGTTTTCCCGGTAATCCGTATTTGCA (site GAATGGCCTTT)", "recombinant UMI read abundance (log10)": 0.0193},
      {"sequence": "GAATGGCCATGGACCGGTTTTCCCGGTAATCCGTATTTGCA (site GAATGGGCTTG)", "recombinant UMI read abundance (log10)": 0.00704},
      {"sequence": "GAATGGCCATGGACCGGTTTTCCCGGTAATCCGTATTTGCA (site GAATGGTCTTG)", "recombinant UMI read abundance (log10)": 0.0295},
      {"sequence": "GAATGGCCATGGACCGGTTTTCCCGGTAATCCGTATTTGCA (site GAATGTCCTTG)", "recombinant UMI read abundance (log10)": 0},
      {"sequence": "GAATGGCCATGGACCGGTTTTCCCGGTAATCCGTATTTGCA (site GAATTGCCTTG)", "recombinant UMI read abundance (log10)": 0},
      {"sequence": "GAATGGCCATGGACCGGTTTTCCCGGTAATCCGTATTTGCA (site GACTGGCCTTG)", "recombinant UMI read abundance (log10)": 0.0119},
      {"sequence": "GAATGGCCATGGACCGGTTTTCCCGGTAATCCGTATTTGCA (site GAGTGGCCTTG)", "recombinant UMI read abundance (log10)": 0},
      {"sequence": "GAATGGCCATGGACCGGTTTTCCCGGTAATCCGTATTTGCA (site GATTGGCCTTG)", "recombinant UMI read abundance (log10)": 0},
      {"sequence": "GAATGGCCATGGACCGGTTTTCCCGGTAATCCGTATTTGCA (site GCATGGCCTTG)", "recombinant UMI read abundance (log10)": 0},
      {"sequence": "GAATGGCCATGGACCGGTTTTCCCGGTAATCCGTATTTGCA (site GGATGGCCTTG)", "recombinant UMI read abundance (log10)": 0},
      {"sequence": "GAATGGCCATGGACCGGTTTTCCCGGTAATCCGTATTTGCA (site GTATGGCCTTG)", "recombinant UMI read abundance (log10)": 0},
      {"sequence": "GAATGGCCATGGACCGGTTTTCCCGGTAATCCGTATTTGCA (site TAATGGCCTTG)", "recombinant UMI read abundance (log10)": 0.00558},
      {"sequence": "GAATGGGCATGGACCGGTTTTCCCGGTAATCCGTATTTGCA (site GAATGGACTTG)", "recombinant UMI read abundance (log10)": 1.98},
      {"sequence": "GAATGGGCATGGACCGGTTTTCCCGGTAATCCGTATTTGCA (site GAATGGCCTTG)", "recombinant UMI read abundance (log10)": 0.00596},
      {"sequence": "GAATGGGCATGGACCGGTTTTCCCGGTAATCCGTATTTGCA (site GAATGGGCTTG)", "recombinant UMI read abundance (log10)": 2.42},
      {"sequence": "GAATGGGCATGGACCGGTTTTCCCGGTAATCCGTATTTGCA (site GAATGGTCTTG)", "recombinant UMI read abundance (log10)": 2.23},
      {"sequence": "GACAAAACATGGACCGGTTTTCCCGGTAATCCGTATTTGGT (site GACAAAACTAC)", "recombinant UMI read abundance (log10)": 0.855},
      {"sequence": "GACAAAACATGGACCGGTTTTCCCGGTAATCCGTATTTGGT (site GACAAACCTAC)", "recombinant UMI read abundance (log10)": 0},
      {"sequence": "GACAAAACATGGACCGGTTTTCCCGGTAATCCGTATTTGGT (site GACAAAGCTAC)", "recombinant UMI read abundance (log10)": 0.517},
      {"sequence": "GACAAAACATGGACCGGTTTTCCCGGTAATCCGTATTTGGT (site GACAAATCTAC)", "recombinant UMI read abundance (log10)": 0},
      {"sequence": "GACAAACCATGGACCGGTTTTCCCGGTAATCCGTATTTGAT (site GACAAACCTAA)", "recombinant UMI read abundance (log10)": 0},
      {"sequence": "GACAAACCATGGACCGGTTTTCCCGGTAATCCGTATTTGAT (site GACAAACCTAC)", "recombinant UMI read abundance (log10)": 0},
      {"sequence": "GACAAACCATGGACCGGTTTTCCCGGTAATCCGTATTTGAT (site GACAAACCTAG)", "recombinant UMI read abundance (log10)": 0},
      {"sequence": "GACAAACCATGGACCGGTTTTCCCGGTAATCCGTATTTGAT (site GACAAACCTAT)", "recombinant UMI read abundance (log10)": 0},
      {"sequence": "GACAAACCATGGACCGGTTTTCCCGGTAATCCGTATTTGGT (site AACAAACCTAC)", "recombinant UMI read abundance (log10)": 0},
      {"sequence": "GACAAACCATGGACCGGTTTTCCCGGTAATCCGTATTTGGT (site CACAAACCTAC)", "recombinant UMI read abundance (log10)": 0},
      {"sequence": "GACAAACCATGGACCGGTTTTCCCGGTAATCCGTATTTGGT (site GAAAAACCTAC)", "recombinant UMI read abundance (log10)": 0},
      {"sequence": "GACAAACCATGGACCGGTTTTCCCGGTAATCCGTATTTGGT (site GACAAAACTAC)", "recombinant UMI read abundance (log10)": 0},
      {"sequence": "GACAAACCATGGACCGGTTTTCCCGGTAATCCGTATTTGGT (site GACAAACCTAA)", "recombinant UMI read abundance (log10)": 0},
      {"sequence": "GACAAACCATGGACCGGTTTTCCCGGTAATCCGTATTTGGT (site GACAAACCTAC)", "recombinant UMI read abundance (log10)": 0},
      {"sequence": "GACAAACCATGGACCGGTTTTCCCGGTAATCCGTATTTGGT (site GACAAACCTAG)", "recombinant UMI read abundance (log10)": 0},
      {"sequence": "GACAAACCATGGACCGGTTTTCCCGGTAATCCGTATTTGGT (site GACAAACCTAT)", "recombinant UMI read abundance (log10)": 0},
      {"sequence": "GACAAACCATGGACCGGTTTTCCCGGTAATCCGTATTTGGT (site GACAAACCTCC)", "recombinant UMI read abundance (log10)": 0.0384},
      {"sequence": "GACAAACCATGGACCGGTTTTCCCGGTAATCCGTATTTGGT (site GACAAACCTGC)", "recombinant UMI read abundance (log10)": 0},
      {"sequence": "GACAAACCATGGACCGGTTTTCCCGGTAATCCGTATTTGGT (site GACAAACCTTC)", "recombinant UMI read abundance (log10)": 0},
      {"sequence": "GACAAACCATGGACCGGTTTTCCCGGTAATCCGTATTTGGT (site GACAAAGCTAC)", "recombinant UMI read abundance (log10)": 0},
      {"sequence": "GACAAACCATGGACCGGTTTTCCCGGTAATCCGTATTTGGT (site GACAAATCTAC)", "recombinant UMI read abundance (log10)": 0},
      {"sequence": "GACAAACCATGGACCGGTTTTCCCGGTAATCCGTATTTGGT (site GACAACCCTAC)", "recombinant UMI read abundance (log10)": 0},
      {"sequence": "GACAAACCATGGACCGGTTTTCCCGGTAATCCGTATTTGGT (site GACAAGCCTAC)", "recombinant UMI read abundance (log10)": 0.00399},
      {"sequence": "GACAAACCATGGACCGGTTTTCCCGGTAATCCGTATTTGGT (site GACAATCCTAC)", "recombinant UMI read abundance (log10)": 0},
      {"sequence": "GACAAACCATGGACCGGTTTTCCCGGTAATCCGTATTTGGT (site GACACACCTAC)", "recombinant UMI read abundance (log10)": 0},
      {"sequence": "GACAAACCATGGACCGGTTTTCCCGGTAATCCGTATTTGGT (site GACAGACCTAC)", "recombinant UMI read abundance (log10)": 0},
      {"sequence": "GACAAACCATGGACCGGTTTTCCCGGTAATCCGTATTTGGT (site GACATACCTAC)", "recombinant UMI read abundance (log10)": 0},
      {"sequence": "GACAAACCATGGACCGGTTTTCCCGGTAATCCGTATTTGGT (site GACCAACCTAC)", "recombinant UMI read abundance (log10)": 0.00428},
      {"sequence": "GACAAACCATGGACCGGTTTTCCCGGTAATCCGTATTTGGT (site GACGAACCTAC)", "recombinant UMI read abundance (log10)": 0}
    ]}
  ]
}
